We go through 14 compounds from patent US5545755A, “Therapeutically useful 2-aminotetralin derivatives” (priority 1995, dated 1996).

Counter-ions that a name gives are not always drawn. Like-named read-outs stand apart in the source and are kept apart here.

Test [1] in a line: Blood pressure in chloralose anesthetized cats (BP SND/MAX). The note with it: i.v., blood pressure in percent control at the dose causing 50% depression in SND. Format: in vivo. On the procedure: BP SND/MAX: The blood pressure of the chloralose anesthetized cats in percent control at the dose causing 50% depression in SND and the maximum reduction in blood pressure as percent of the control blood pressure in the same animals observed in the dose range tested (0.001-1.0 mg/kg i.v.).

Test [2] is described as follows: Hypothermia in mice after subcutaneous injection. The format is in vivo. To be noted: Mus musculus, sc, dose depressing temperature by 2° C. in two of four mice. On the procedure:
Hypothermia: Starting with a dose of 30 mg/kg, four mice are injected subcutaneously with test compound. Twenty minutes later, the number of animals whose body temperature has decreased by 2° C. or more are counted. […] The time for last statistically significant drug affect on mean body temperature is indicated in minutes. […] Potency is given as mg/kg ED50 (dose required to depress temperature in two of four mice) as measured by Spearman-Karber statistics.

Test [3] addresses T1, 5-hydroxytryptamine (5-HT1A) receptor (Bos taurus, UniProt F6Q2H9).
T1 construct: bovine brain homogenate; from tissue; host or cells: bovine brain homogenate
T1 sequence (F6Q2H9 1-422): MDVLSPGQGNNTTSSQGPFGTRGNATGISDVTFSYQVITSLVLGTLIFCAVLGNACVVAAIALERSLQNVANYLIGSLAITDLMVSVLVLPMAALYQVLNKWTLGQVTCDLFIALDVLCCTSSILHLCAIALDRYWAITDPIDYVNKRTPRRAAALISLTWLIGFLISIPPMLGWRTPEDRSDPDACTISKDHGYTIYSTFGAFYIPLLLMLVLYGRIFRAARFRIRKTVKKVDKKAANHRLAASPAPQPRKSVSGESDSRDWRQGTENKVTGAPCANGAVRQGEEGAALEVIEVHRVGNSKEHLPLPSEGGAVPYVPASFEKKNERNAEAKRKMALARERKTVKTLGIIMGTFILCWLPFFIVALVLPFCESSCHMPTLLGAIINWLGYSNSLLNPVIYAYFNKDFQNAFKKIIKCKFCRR
Put plainly: Inhibition of 8-OH-DPAT binding in a bovine brain homogenate (5-HT1A binding). The source says: Binding: Inhibition of 8-OH-DPAT binding in a bovine brain homogenate. Potency is given as nM dose required to inhibit 50% of DPAT binding (IC50). This test measures ability to bind to 5-hydroxytryptamine (5-HT1A) receptor.

Test [4] relates to sympathetic nerve discharge. Put plainly: Sympathetic Nerve Discharge (SND) in chloralose anesthetized cats. Format: in vivo. The note with it: Felis catus, iv, dose causing 50% depression in SND. Here is the method:
Sympathetic Nerve Discharge (SND): The i.v. mg/kg dose causing a 50% depression in SND in chloralose anesthetized cats and the maximum inhibition of sympathetic activity observed in the dose range tested (0.001-1.0 mg/kg i.v.).

The conditions of test [5]: Chem. Ab., 79:146294b; cited from earlier work.
For test [6] the following is noted: J. Pharm. Sci., 67, 880-82 (1978); cited from earlier work.
For the next test, the system named is dopamine receptors. To be noted: cited from earlier work.
In another test the target is D2 receptor (Homo sapiens, UniProt P14416). Put plainly: Dopamine D2 receptor in vitro binding. The source says:
The compounds of this invention where R1 is in the 8 position in the aromatic ring are very selective 5-HT1A receptor agonists having little or no dopaminergic activity. […] Both these features are beneficial to effective clinical treatment.

For test [7] the following is noted: some patients; cited from earlier work.

Chain of D2 receptor (P14416 whole entry): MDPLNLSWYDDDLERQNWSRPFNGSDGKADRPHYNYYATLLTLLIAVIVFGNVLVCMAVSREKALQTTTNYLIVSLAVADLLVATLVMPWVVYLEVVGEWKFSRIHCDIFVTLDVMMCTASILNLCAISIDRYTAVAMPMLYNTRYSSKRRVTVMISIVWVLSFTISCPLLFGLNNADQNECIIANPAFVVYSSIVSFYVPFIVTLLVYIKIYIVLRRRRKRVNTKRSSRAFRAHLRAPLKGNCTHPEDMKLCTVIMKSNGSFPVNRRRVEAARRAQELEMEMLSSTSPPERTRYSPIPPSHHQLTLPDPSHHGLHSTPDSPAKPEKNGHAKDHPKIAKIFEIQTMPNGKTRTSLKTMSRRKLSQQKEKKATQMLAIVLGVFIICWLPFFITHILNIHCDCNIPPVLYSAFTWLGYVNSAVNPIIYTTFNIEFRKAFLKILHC

The term ED50 denotes the midpoint of the dose-response relation. A low value points to greater potency. What is called IC50 is the concentration that gives 50% inhibition. Take `C=CCN(CC=C)C1CCc2ccccc2C1.Cl` (racemic) [Example 21 Compound 6, (+-)-1,2,3,4-Tetrahydro-N,N-di-2-propenyl-2-naphthalenamine hydrochloride]: in [1], the “% BD (at SND ED50)” value is on record as 52.0%. Also, the ED50 in [2] came out at 0.97 mg/kg; in [4] it was 0.6 mg/kg. In addition, the 50% inhibitory concentration (IC50) in test [3] worked out at 50.7 nM.

As for `C=CCN[C@@H]1CCc2cccc(OC)c2[C@@H]1CC=C` (relative stereo) [Example 26 Compound 1, Cis-(+-)-1,2,3,4-Tetrahydro-8-methoxy-N,1-di-(2-pro-penyl)-2-naphthalenamine hydrochloride], in test [1], the “% BD (at SND ED50)” value was 70.0%. The values for the ED50 in [2] and in [4] were 2.31 mg/kg and 0.16 mg/kg, respectively.

With `Brc1cccc2c1CC(N1CCCC1)CC2` (single isomer, unassigned; (+)) [Compound 59-1, (+)-1,2,3,4-tetrahydro-2-pyrrolidino-8-bromo-tetralin], the concentration for half-maximal inhibition (IC50) in test [3] (read-out: 5-HT1A Binding IC50) came to 4 nM.

For the compound `NC(=O)c1cccc2c1CC(N1CCCC1)CC2` (single isomer, unassigned; (+)) [Compound 60-1, (+)-1,2,3,4-tetrahydro-2-pyrrolidino-naphthalene-8-yl-carboxamide], the 50% inhibitory concentration (IC50) in test [3] (read-out: 5-HT1A Binding IC50) stood at 10.9 nM.

`CN(C)C1CCc2ccc(O)cc2C1(C)C` (stereo not shown) [1,1-Dimethyl-2-(N,N-dimethylamino)-7-hydroxytetralin]: the “analgesic and intestinal movement accelerating actions” value in test [5] is “analgesic and intestinal movement accelerating actions”.

As to `COc1cccc2c1CCC(NC1CC1)C2C` (stereo not shown) [1-methyl-2-(cyclopropylamino)-5-methoxytetralin], the local anesthetic activity result in test [6] is “possess local anesthetic activity”.

On to `O=C1CC2(CCCC2)CC(=O)N1CCCCN1CCN(c2ncccn2)CC1` [Buspirone], for which the dopamine receptor antagonism entry with dopamine receptors is “antagonizes dopamine receptors at the same dose it stimulates 5-HT1A receptors”.

For the compound `c1ccc2c(c1)CCC(N1CCCCCC1)C2` (stereo not shown) [Compound 57-3, Hexahydro-1-(1,2,3,4-tetrahydro-2-naphthalenyl)-1H-Azepine], the “% BD (at SND ED50)” value in test [1] stood at 75.0%. The values for the ED50 in test [2] and in test [4] were 2.3 mg/kg and 0.62 mg/kg, respectively. In addition, in [3] (read-out: 5-HT1A Binding IC50), the IC50 was determined as 103 nM.

`NC(=O)c1cccc2c1CC(N1CCCCCC1)CC2` (stereo not shown) [Compound 58-1, (1-Hexahydroazepinyl)-5,6,7,8-tetrahydronaphthalene-1-carboxamide] registered an ED50 in test [2] of 2.3 mg/kg. Moreover, the IC50 at D2 receptor is greater than 1000 nM; in [3] (read-out: 5-HT1A Binding IC50), 26 nM.

Take `CCCN(CC1CC1)C1CCc2cccc(C(N)=O)c2C1` (stereo not shown) [Example 5 Compound 2, 1,2,3,4-Tetrahydro-2-N-cyclopropylmethyl-2-N-propyl-8-yl-carboxamide]: the “% BD (at SND ED50)” value in [1] turned out to be 40.0%. In addition, the ED50 in test [2] is 0.31 mg/kg; in [4], 0.33 mg/kg. In addition, in [3] (read-out: 5-HT1A Binding IC50), the IC50 was found to be 13 nM.

With `C=CCN(C)C1CCc2cccc(OC)c2C1.Cl` (stereo not shown) [Example 15 Compound 12, 1,2,3,4-Tetrahydro-8-methoxy-N-methyl-N-2-propenyl-2-Naphthalenamine hydrochloride], the “% BD (at SND ED50)” value in test [1] was found to be 79.0%. The results for the 50% effective dose (ED50) in test [2] and in test [4] were 1.2 mg/kg and 0.012 mg/kg, respectively. Further, the IC50 in [3] is 7.9 nM.

With `C=CCNC1CCc2cccc(OC)c2C1.Cl` (stereo not shown) [Example 15 Compound 27, 1,2,3,4-Tetrahydro-8-methoxy-N-2-propenyl-2-naphthalenamine hydrochloride], in test [1], the “% BD (at SND ED50)” value came to 62.0%. Moreover, the values for the ED50 in test [2] and in test [4] were 0.31 mg/kg and 0.1 mg/kg, respectively. Moreover, the IC50 in test [3] was found to be 8.9 nM.

With `C=CCNC1CCc2cccc(O)c2C1.Cl` (stereo not shown) [Example 19 Compound 2, 5,6,7,8-tetrahydro-7-(2-propenyl)amino-1-naphthalenol hydrochloride], in test [1], the “% BD (at SND ED50)” value worked out at 78.0%. The results for the ED50 in [2] and in [4] were 0.73 mg/kg and 0.01 mg/kg, respectively. Besides, in [3], the IC50 stood at 3.5 nM.

Regarding `CC1(C)CC(=O)N(CCCCN2CCN(c3ncccn3)CC2)C(=O)C1` [Gepirone], the “effect on depressive endpoints” value in test [7] is given as “ameliorative effects on some depressive endpoints in some patients”. Also, the dopamine receptor antagonism result with dopamine receptors is on record as “has dopamine antagonist properties”.
